Patent publication EP4775570A1, “CYP11A1 INHIBITOR, PREPARATION METHOD THEREFOR AND USE THEREOF” (Shenzhen Zhongge Biological Technology Co., Ltd., priority 2023, dated 2025)

What was measured:
CYP11A1 = molecular target: T1, CYP11A1 (Homo sapiens, UniProt P05108); assay: NCI-H295R cellular pregnenolone biosynthesis inhibition assay (ELISA method); format: cell-based; conditions: NCI-H295R cells, 3 days incubation, pregnenolone in cell supernatant by ELISA; read-out: IC50
T1 construct: host or cells: NCI-H295R
T1 sequence (P05108 40-521): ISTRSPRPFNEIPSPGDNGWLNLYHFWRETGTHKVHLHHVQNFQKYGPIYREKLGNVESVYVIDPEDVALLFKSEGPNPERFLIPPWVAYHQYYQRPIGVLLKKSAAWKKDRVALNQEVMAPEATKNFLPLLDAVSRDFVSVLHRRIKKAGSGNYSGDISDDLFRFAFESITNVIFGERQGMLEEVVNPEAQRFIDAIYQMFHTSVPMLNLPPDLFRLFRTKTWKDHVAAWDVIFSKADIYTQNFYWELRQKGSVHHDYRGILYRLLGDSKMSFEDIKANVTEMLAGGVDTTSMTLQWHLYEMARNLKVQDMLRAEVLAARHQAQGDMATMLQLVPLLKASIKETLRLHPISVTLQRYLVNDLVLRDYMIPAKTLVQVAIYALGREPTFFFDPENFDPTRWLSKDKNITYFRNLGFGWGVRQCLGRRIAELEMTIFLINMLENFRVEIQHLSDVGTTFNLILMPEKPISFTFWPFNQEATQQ
Experimental: The experiment aims to test the inhibitory effect of the compounds of the present disclosure on cellular pregnenolone biosynthesis, and to assess the inhibitory effect of the compounds on CYP11A1 target based on their IC50 values.
NCI-H295R cells (MINGZHOUBIO, MZ-2138) cultured in NCI-H295R complete medium (MINGZHOUBIO, MCM-0399).
Using culture medium, NCI-H295R cells were seeded into a new 384-well cell culture plate (Greiner, 781091) at a density of 5,000 cells per well, with 45µL of cell suspension per well. The test compounds were prepared by adding 5µL of compound solution at 10× concentration to each well, to a maximum final concentration of 10µM, followed by 3× serial dilution for 10 points, with a final DMSO concentration of 0.1%, centrifuging at 1,000 rpm for 1 minute at room temperature, and then incubating in a 5% CO2 cell incubator at 37°C for 3 days.
Pregnenolone ELISA kit (Abnova, KA1912) was used for detecting the content of pregnenolone in the supernatant of cell culture. Before detection, the reagents were allowed to come back to room temperature for 1 hour. After taking out the 384-well plate, the cellular supernatant was pipetted and subjected to 5× dilution with the Assay Buffer provided in the kit. A working solution of competitive molecule and a washing solution in accordance with the instructions was prepared. 50µL of diluted cellular supernatant were pipetted into the 96-well plate provided in the ELISA kit, added with 100µL of working solution of competitive molecule per well and the plate was incubated at room temperature for 1.5 hours. After discarding the liquid, the plate was washed with 300µL of washing solution per well three times and dried. After adding 150 µL of substrate chromogenic solution per well, the plate was incubated at room temperature for 10-15 minutes. After adding 50 µL of termination solution per well, the plate was incubated at room temperature for 10-15 minutes and read for absorbance at 450nm with Envision HTS Multilabel Reader.
The wells added with 1µM ODM-208 were defined as 100% inhibition (positive control), the wells containing DMSO at a final concentration of 0.1% were defined as 0% inhibition (negative control), and inhibitory ratio = (absorbance of tested sample - average absorbance of negative control)/(average absorbance of positive control - average absorbance of negative control)*100%. The data were subjected to four-parameter fitting using GraphPad Prism to calculate the IC50 values of the compounds.

[1] = PK study, intravenous and oral administration, plasma LC-MS/MS; format: in vivo; conditions: both sexes, 5 mg/kg, oral administration of 5 mpk, species not given (ICR mice or SD Rat); for bioavailability: read-out: bioavailability (F); for half-life: read-out: half-life (t1/2) (converted)
Experimental: ICR mice (male/female, total 6 animals) were assigned to two groups for oral administration and intravenous administration, respectively, with 3 mice in each group. Before administration, the animals were fasted for 10-14 hours, with water available ad lib.
SD Rat (male/female, total 6 animals) were assigned to two groups for oral administration and intravenous administration, respectively, with 3 mice in each group. Before administration, the animals were fasted for 10-14 hours, with water available ad lib.
The compounds to be tested were weighed out in accordance with intended dosage, formulated with vehicles (5% DMSO + 10% Solutol + 85% physiological saline) to dosage form at appropriate concentrations (administered intravenously and orally in rats or mice at a volume of 5 mL/kg and 10 mL/kg, respectively). The dosage form for intravenous injection is a clear solution, and the dosage form for oral administration is a clear solution or homogenous suspension.
Administration to animals was conducted through intravenous injection and oral gavage, and blood samples were collected at 0.033, 0.083, 0.25, 0.5, 1, 2, 4, 8, and 24 hours after intravenous injection, or at 0.083, 0.25, 0.5, 1, 2, 4, 6, 8, and 24 hours after oral administration. After centrifugation of whole blood samples at 4°C and 6,800g for 6 minutes, the upper layers of plasma were stored at -80°C refrigerator before analysis.
The DMSO stock solutions of the substance to be tested were diluted with methanol or acetonitrile solution to serial working solutions and added to blank plasma matrix to formulate samples for standard curve and quality control. An appropriate volume of plasma sample was added with appropriate fold of methanol or acetonitrile containing internal standards, according to response, for protein precipitation. After centrifugation of all samples at 4°C and 18,000g for 10 min, appropriate volumes of supernatant were taken for LC-MS/MS analysis.
Plasma drug concentration-time curves were plotted in accordance with tested concentrations, and pharmacokinetic parameters were calculated based on non-compartmental model using WinNonlin software, including half-life (T1/2), area under the drug concentration-time curve (AUC0-t), clearance rate (CL), steady-state distribution volume (Vss), bioavailability (F), etc.

Row | IC50 (CYP11A1) [nM] | AUC [1] [ng·h/mL] | Cmax [1] [ng/mL] | bioavailability [1] [%] | half-life [1] [h] | SMILES
1 | < 100 | > 1700 | > 1000 | > 60 |  | Cn1c(CN2Cc3ccccc3C2)c(F)cc(C=CC2CCN(C(=O)CC#N)CC2)c1=O [compound 112]
2 | < 100 | > 1700 |  | > 60 | > 3 | Cn1c(CN2Cc3ccccc3C2)c(F)cc(CCC2CCN(S(C)(=O)=O)CC2)c1=O [compound 72]
3 | < 100 | > 1700 |  |  | > 3 | COc1cc(CN2Cc3ccccc3C2)ccc1CCC1CCN(S(C)(=O)=O)CC1 [compound 53]
